Key:
C2C12 [1] = test: Western blot of phosphorylated AMPK; type: cell-based; conditions: 1 μM each, day 4; control 1.29±0.27%
Procedure: (§1) Cells were lysed with RIPA buffer and protein concentration was determined by BCA. […] Variations in intensity were expressed as % of basal (day 0) and expressed as mean±SEM. All results were calculated as a percentage of non-differentiated controls to minimize the intrinsic variation among different experiments.
We next studied if these changes in AMP/ATP ratio had any effect in AMPK activation.

C2C12 myobundles = test: C2C12 3D myobundle with IL-6 ± dipyridamole; type: cell-based; conditions: IL-6 2.5 μg/ml ± dipyridamole 1 μM, 14 days; Sham 890±39
Description: C2C12 myobundles were fabricated following the protocol described by Bursac group (see references in ref. 44). Briefly, molds of polydimethylsiloxane (PDMS) designed for 12-well plates were created from Teflon masters with semicylindrical wells. These molds were sterilized, coated with 0.2% (w/v) Pluronic F-127 (Invitrogen) to prevent tissue adhesion, and paired with laser-cut Cerex frames (9×9 mm^2, 1-mm-wide rim) for myobundle attachment. The frames served as an anchor and guide during hydrogel compaction, ensuring uniaxial cell alignment. C2C12 cells were encapsulated in a hydrogel solution, including bovine fibrinogen (Sigma-Aldrich), matrigel (Corning), bovine thrombin (Sigma-Aldrich), and growth medium as concentration of bursac group indicates Referencias. The cell/hydrogel mixture was polymerized in the PDMS molds, and myobundles were cultured in a humidified chamber at 37° C., in 95% air and 5% CO2. After 4 days, the frames with myobundles were suspended in DM with treatments. DM and treatments are replaced every two days. GM and DM media contained 6-aminocaproic acid to reduce fibrinolysis. […] After the 14 days of treatment a bright-field photograph was taken to analyze the thickness of the fiber at its midpoint, and subsequently, they were embedded in OCT medium. […]

[2] = test system: K/B×N serum transfer-induced arthritis; test: Motor activity tests in K/B×N serum transfer arthritis; type: in vivo, C57BL/6 mice
Procedure: Physical activity tests were performed to assess the motor development of the mice during the arthritic process as follows:
(§2) Ambulation in 12-week-old male C57BL/6 mice was recorded following the protocol described by Gibbs and Crosbie-Watson (2). Mice were placed in individual recording chambers and were allowed to freely move for 6 min. Distance traveled by each animal was determined using object tracking in Kinovea open-source video analysis software (V 0.9.5).
(§3) The coordinated motor function of the four limbs was evaluated with the rotarod test (Rotarod, Harvard Apparatus, USA) with male C57BL/6 mice at the age of 12-week-old. Burgos et al. protocol was followed with modifications (76). Mice were first familiarized with the rotarod by letting them stay for 120s on the rod rotating at 4 and 6 rotations per minute (rpm). Motor activity was assessed by training the mice with an accelerated rotarod protocol of three trials, during which the rod accelerated from 4 rpm to 40 rpm within 5 min.
as §2, with “(see references in ref. 44).” for “(2).”
The Grip Strength Meter (Ugo Basile, #47200) was utilized to assess the grip strength peak of the forelimbs. The mouse held onto a bar, and the highest force exerted during the pull was measured in grams using a digital force transducer. In the test, the mouse gripped a bar attached to the force gauge. Next, an investigator pulled the mouse's tail backward. The gauge recorded tension at the moment the mouse released its forepaws from the bar.
as §3, with “(see references in ref. 44).” for “(76).”

C2C12 [3] = test: AMPK phosphorylation assay kit (short time points); type: cell-based; conditions: myoblast, 1 μM, 10 min after switching to 2% HS; control 1.97±0.17
Procedure: Assay was performed with the AMPK phosphorilation assay kit (Abnova Corporation, Jhouzih St, Taiwan) as manufactor instructions and pAMPK was measured at λex/em 530/585 nm and 360/450 nm for total protein with Tecan Infinite.

C2C12 [4] = test: Nucleotide concentration by HPLC during C2C12 differentiation; type: cell-based
Procedure: Supernatant and cell lysate are collected every day. Cells were lysated with a homemade buffer (1 mM phenylmethylsulfonyl fluoride, 1 mM protease inhibitor cocktail, 1 mM sodium orthovanadate, 1 mM sodium fluoride and 1 mM β-glicerophospate) and supernatant was used directly. A heat shock step was done at 98° C. for 2 min, and to avoid adenosine degradation 1 μM EHNA was added at the time of heating. All samples were centrifuged at 13000 g for 10 min at 4° C. and supernatants were collected and stored at −80° C. until use. Inosine, adenosine, AMP, ADP and ATP concentrations were determined with high performance liquid chromatography (HPLC) using a liquid chromatograph with a reversed phase column (Agilent 1100 Series Liquid Chromatography) and an UV detector set at 254 nm. Buffer composed of 0.1 mol/L KH2PO4 (pH 7.5) and 18% acetonitrile was run at 1.5 ml/min for 20 min. Compounds were identified and quantified by their retention times and peak areas of known standards, calibrated by spectrophotometry. […] The results have been corrected and expressed as mean±SEM. All results were calculated as a percentage of controls without differentiation state.

C2C12 [5] = test: Western blot of adenosine receptors, P2X7 and Panx-1 during differentiation; type: cell-based; conditions: 1 μM
Procedure: as §1
The expression of adenosine receptors, P2X7 receptor and Panx-1 channel was analyzed during myoblast differentiation.

[6] = test system: K/B×N serum transfer-induced arthritis; test: Western blot of gastronemius, acute model
[7] = healthy mice, dipy alone vs sham
[8] = healthy mice, dipyridamole alone, Sham 100±1%

OCCN(CCO)c1nc(N2CCCCC2)c2nc(N(CCO)CCO)nc(N3CCCCC3)c2n1 [dipyridamole, 2,6-bis(Diethanolamino)-4,8-dipiperidinopyrimido[5,4-d]pyrimidine]
pAMPK (Western blot) (C2C12 [1]): 2.66±0.7%
Myobundle thickness (C2C12 myobundles): did not lead to an alteration of the muscle fiber
Ambulatory activity: distance travelled ([2]; arthritic mice + dipyridamole, 2 weeks, arthritic 830±37, sham 1393±187): 1203±53 cm
Two limb hanging test average score ([2]; arthritic mice + dipyridamole, arthritic 3.6±3.3, sham 12±3): 9.8±2
Rotarod latency to fall ([2]; arthritic mice + dipyridamole, arthritic 43.3±5.4, sham 75.9±3.3): 73.3±10.9 seg
Motor tests (ambulatory activity, grip strength, two limb hanging, rotarod) [2, 7]: behave similar
AMPK activation (C2C12 [3]): 2.89±0.29
Extracellular ATP (C2C12 [4]; 1 μM each, day 4, control 14.7±0.5): did not modify
Intracellular adenosine (C2C12 [4]; 1 μM, day 4, control 10.87±0.73): 13.76 ± 1.13 nM
Intracellular inosine (C2C12 [4]; 1 μM, day 4, control 11.07±0.54): 14.17 ± 1.75 nM
Intracellular AMP (C2C12 [4]; 1 μM, day 4, control 12.10±0.73): 18.53 ± 1.13 nM
Extracellular adenosine (C2C12 [4]; 1 μM, day 4 of differentiation, control 11.6±0.81): 17.33 ± 0.47 nM
A3 receptor protein expression (C2C12 [5]; compared to control): did not change
P2X7 protein expression (% of basal) (C2C12 [5]; day 4): 202±46%
CK protein expression ([6]; RA+Dipy, RA 77.98±10.81%, Sham 100±0%): 393.4±55.09%
A2B receptor expression in gastronemius ([6]; arthritic mice + dipyridamole, arthritic 35±9%, Sham 100±1%): 160±14%
AMPK phosphorylation in gastronemius ([6]; arthritic mice + dipyridamole, arthritic 53±7%, sham 100±1%): 152±5%
MHC protein expression in gastronemius ([6]; arthritic mice + dipyridamole, arthritic 60±7%, sham 100±1%): 184±6%
A2A receptor expression in gastronemius ([6]; arthritic mice + dipyridamole, arthritic 71±3%, Sham 100±1%): 123±6%
Pax7 protein expression in gastronemius ([6]; arthritic mice + dipyridamole, arthritic 151±13%, sham 100±1%): 274±11%
p21 protein expression ([6]; arthritic mice + dipyridamole, arthritic 221±38%): 64±15%
p16 protein expression ([6]; arthritic mice + dipyridamole, arthritic 392±25%): 139±32%
Pax7 and MHC protein expression in gastronemius [6, 7]: non-significant increase
A2A receptor expression in gastronemius [6, 8]: 118.8±11.30%
A2B receptor expression in gastronemius [6, 8]: 167.6±10.63%
pAMPK expression in gastronemius [6, 8]: 194.2±5.2%

Source: patent US20260263468A1 (Fundación Instituto de Investigación Sanitaria Fundación …, priority 2023, published 2026)
